Experimental data as given in patent US20050096381A1, “Derivatives of isoflavones” (YEDA & MEDICAL RESEARCH, priority 2002, published 2005).
“Also recorded” adds a separate entry of the source. Like-named read-outs stand apart in the source and are kept apart here.

Tests used:
[1] = test system: human adrenocortical carcinoma cells (NCI-H295R); assay: cells; format: cell-based; conditions: for IC50: read-out: concentration required for 50% inhibition of DNA synthesis (IC50), NCI-H295R
Method: These cells were purchased from ATTC (Rockville, Md.) and grown in Dulbecco's modified Eagle's medium containing antibiotics.
(§1) Assessment of DNA synthesis was performed by [^3H]-thymidine incorporation in these cells. Cells were grown until subconfluence and then treated with various hormones or agents as indicated. Forty-eight hours later, [^3H] thymidine was added for two hours. Cells were then treated with 10% ice-cold trichloroacetic (TCA) for 5 min and washed twice with 5% TCA and then with cold ethanol. The cellular layer was dissolved in 0.3 ml of 0.3M NaOH, samples were taken and [^3H] thymidine incorporation into DNA was determined. The concentration of hormone to produce half-maximal induction (EC50) or inhibition (IC50) was calculated from the dose response curves.
(§2) In the second phase the cytotoxicity of isoflavone-daunomycin conjugates was tested after 48 h of incubation in normal cells [VSMC, E304, non transformed enterocytes (TEC)] and malignant cells [human adrenocortical carcinoma (NCI-H295R), human colon cancer cells (colo320) and c-K-ras transformed rat enterocytes (R1)] using uptake of [^3H]-thymidine as a proliferation marker.

[2] = test system: human colon cancer cells (colo320); assay: DNA synthesis by [3H]-thymidine incorporation in colo320 cells; format: cell-based
Method: These cells were purchased from ATTC (Rockville, Md.) and grown in RPMI medium containing 20 mM HEPES and 10% fetal calf serum.
as §1, §2

[3] = test system: E304 endothelial cells (expressing mainly ERα); assay: DNA synthesis by [3H]-thymidine incorporation in E304 cells; format: cell-based, human
Method: E304 cells, expressing mainly ERα, an endothelial cell line derived from a human umbilical vein, were purchased from American Type Culture Collection (ATCC), Rockville, Md., and grown in medium 199 containing 10% FCS, glutamine and antibiotics.
as §1, §2

[4] = test system: c-K-ras transformed rat enterocytes (R1); assay: cells; format: cell-based; conditions: read-out: concentration required for 50% inhibition of DNA synthesis (IC50), R1
Method: (§3) Cell lines were obtained from Prof. N. Arber, Ichilov Hospital, Tel-Aviv, Israel and grown as described previously (Arber N et al. 1996 Oncogene 12:1903-1908).
as §1, §2

[5] = test system: nontransformed rat enterocytes (IEC); assay: cells; format: cell-based; conditions: read-out: concentration required for 50% inhibition of DNA synthesis (IC50), IEC
Method: as §3, §1, §2

[6] = test system: human vascular smooth muscle cells (VSMC), expressing mainly ERβ; assay: cells; format: cell-based
Method: Human umbilical artery smooth muscle cells, expressing mainly ERβ, were prepared as previously described with minor modifications (Somjen D. et al. 1998 Hypertension 32:39-45). In brief, umbilical cords were collected shortly after delivery. The umbilical arteries were isolated by dissection, cleaned of blood and adventitia and then cut into tiny slices (1-3 mm). The segments were kept in culture in medium 199 containing 20% FCS, glutamine and antibiotics. […] Cells were fed twice a week and, upon confluence, trypsinized and transferred to 24-well dishes. Cells were used only at passages 1-3 when expression of smooth muscle actin was clearly demonstrable.
as §1, §2

Recombinant ERα protein = target: T1, Recombinant ERα protein (Homo sapiens, UniProt P03372); assay: Estrogen receptor-binding assay, [3H]-17β-estradiol displacement, ERα; conditions: result in words
T1 sequence (P03372 1-595): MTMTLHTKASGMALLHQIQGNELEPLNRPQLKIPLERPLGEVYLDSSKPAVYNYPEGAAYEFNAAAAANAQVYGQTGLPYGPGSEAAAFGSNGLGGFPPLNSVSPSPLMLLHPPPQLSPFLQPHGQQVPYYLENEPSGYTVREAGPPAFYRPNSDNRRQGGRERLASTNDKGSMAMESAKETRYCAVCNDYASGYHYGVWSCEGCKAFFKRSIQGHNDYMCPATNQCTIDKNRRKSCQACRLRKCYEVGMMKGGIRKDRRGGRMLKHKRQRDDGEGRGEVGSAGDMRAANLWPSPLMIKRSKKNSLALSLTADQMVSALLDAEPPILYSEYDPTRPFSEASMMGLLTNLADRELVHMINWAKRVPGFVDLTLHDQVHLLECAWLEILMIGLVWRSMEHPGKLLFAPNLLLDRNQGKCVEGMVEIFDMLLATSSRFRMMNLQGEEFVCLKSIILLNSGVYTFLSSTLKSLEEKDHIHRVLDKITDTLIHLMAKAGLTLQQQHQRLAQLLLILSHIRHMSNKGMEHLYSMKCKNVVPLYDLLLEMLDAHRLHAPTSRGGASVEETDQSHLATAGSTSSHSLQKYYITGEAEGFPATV
Method: (§4) Biotinylated anti-ER antibody (α or β, prepared as described in Strasburger C J & Kohen F 1990 Methods Enzymol. 184:481-496), 100 ng/well in 100 μl of binding buffer, was added to each well, and the reaction mixtures were incubated with shaking for 2 h and 30 min at room temperature. The reaction mixtures were then decanted, and each well was washed once with binding buffer. Dilute sodium hydroxide (0.1 N, 300 μl) was added to each well. After shaking for 20 min, an aliquot (200 μl) was removed from each well and added to a vial containing scintillation fluid. The vials were then counted for radioactivity in a beta scintillation counter.

[7] = test system: creatine kinase (CK) specific activity, an estrogen responsive enzyme; assay: Stimulation of the specific activity of creatine kinase (CK) in rat tissues in vivo; conditions: for CK specific activity (experimental/control), aorta: Ao; for CK specific activity (experimental/control), aorta / CK specific activity (experimental/control), diaphysis / CK specific activity (experimental/control), epiphysis / CK specific activity (experimental/control), left ventricle of the heart / CK specific activity (experimental/control), pituitary / CK specific activity (experimental/control), uterus: immature female rats, i.p., 24 h, mean ± SD, n = 5, control = 1.0; for CK specific activity (experimental/control), diaphysis: Dia; for CK specific activity (experimental/control), epiphysis: Epi; for CK specific activity (experimental/control), left ventricle of the heart: LV; for CK specific activity (experimental/control), pituitary: Pi; for CK specific activity (experimental/control), uterus: Ut; for effect on CK specific activity in rat tissues (in words): uterus, pituitary, epiphysis, diaphysis, aorta, left ventricle
Method: The ability of the isoflavone derivatives to bind estrogen receptor and/or to modulate estrogen receptor response may be examined by any assay known in the art. A convenient assay described herein as a non-limiting example utilizes the specific activity of creatine kinase (CK), an estrogen responsive enzyme, as a parameter for the estrogen-like activity of the isoflavone derivatives of the present invention.
The rats were killed by decapitation 24 h after i.p. injection. The various organs were removed and stored at −20° C. until processed for CK activity as previously described (Somjen D. et al. 1998 Hypertension 32:39-45).

Recombinant ERβ protein = Recombinant ERβ protein (Homo sapiens, UniProt Q92731); assay: Estrogen receptor-binding assay, [3H]-17β-estradiol displacement, ERβ; conditions: for binding activity to ERβ: result in words
Recombinant ERβ protein, sequence (Q92731 whole entry, species assumed): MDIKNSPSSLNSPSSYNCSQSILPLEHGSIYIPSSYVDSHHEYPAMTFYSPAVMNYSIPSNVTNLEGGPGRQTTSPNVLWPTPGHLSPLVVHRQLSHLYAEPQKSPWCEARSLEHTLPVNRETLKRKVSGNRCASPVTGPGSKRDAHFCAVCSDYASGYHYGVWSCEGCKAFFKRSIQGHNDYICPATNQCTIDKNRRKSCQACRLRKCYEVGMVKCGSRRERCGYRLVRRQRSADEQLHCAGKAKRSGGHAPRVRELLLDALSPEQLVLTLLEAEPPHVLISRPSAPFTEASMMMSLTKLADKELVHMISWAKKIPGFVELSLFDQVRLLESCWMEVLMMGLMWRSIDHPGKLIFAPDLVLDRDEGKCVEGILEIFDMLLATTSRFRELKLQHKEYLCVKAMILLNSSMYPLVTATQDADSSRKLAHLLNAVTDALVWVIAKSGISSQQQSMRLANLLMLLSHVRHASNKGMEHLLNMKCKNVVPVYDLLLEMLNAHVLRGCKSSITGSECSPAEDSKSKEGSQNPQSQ
Method: as §4

[8] = 48 h incubation, [3H]-thymidine
[9] = 48 h incubation, read-out: concentration required for 50% inhibition of DNA synthesis (IC50), E304
[10] = 48 h incubation, [3H]-thymidine, read-out: concentration required for 50% inhibition of DNA synthesis (IC50), VSMC

Compound	IC50 [3, 9] [µM]	binding activity to ERα (Recombinant ERα protein)	CK specific activity (experimental/control), aorta [7]	CK specific activity (experimental/control), diaphysis [7]	CK specific activity (experimental/control), epiphysis [7]	CK specific activity (experimental/control), left ventricle of the heart [7]	CK specific activity (experimental/control), pituitary [7]	CK specific activity (experimental/control), uterus [7]	effect on CK specific activity in rat tissues (in words) [7]	binding activity to ERβ (Recombinant ERβ protein)	further results
6-carboxymethyl biochanin A daunomycin conjugate [Cbio-daunomycin]	0.005	–	–	–	–	–	–	–	–	–	IC50 [1, 8]: 0.06 µM; IC50 ([2]; 48 h incubation, [3H]-thymidine, read-out: concentration required for 50% inhibition of DNA synthesis (IC50), Colo320): 0.04 µM
6-carboxymethyl genistein daunomycin conjugate [Cgen-daunomycin]	0.06	–	–	–	–	–	–	–	–	–	IC50 [1]: 0.016 µM; IC50 [4]: 0.07 µM; IC50 [5]: 2 µM; IC50 ([6]; 48 h incubation, [3H]-thymidine, listed as 6-carboxymethyl genistein daunomycin conjugate, read-out: concentration required for 50% inhibition of DNA synthesis (IC50), VSMC): 0.02 µM; IC50 [6, 10]: 0.012 µM
7-(O)-carboxymethyl daidzein-daunomycin conjugate [Cdaid-daunomycin]	–	–	–	–	–	–	–	–	–	–	IC50 ([1]; 48 h incubation, [3H]-thymidine, listed as 7-(O)-carboxymethyl daidzein-daunomycin conjugate): 0.007 µM; IC50 [1, 8]: 0.006 µM; IC50 [6, 10]: 0.022 µM
COc1ccc(-c2coc3cc(O)c(CC(=O)O)c(O)c3c2=O)cc1 [6-carboxymethyl biochanin A]	–	did not show any significant binding activity	1.63 ± 0.11	1.51 ± 0.05	1.61 ± 0.17	1.91 ± 0.16	1.54 ± 0.05	0.89 ± 0.12	increased the CK specific activity in all the rat tissues with the exception of the uterus; also recorded: caused an increase in CK activity in rat tissues	did not show any significant binding activity	stimulatory response of E2 to CK specific activity on combination with E2 (in words) ([7]; rats treated with E2 plus compound): inhibited in all the tissues
O=C(O)Cc1c(O)cc2occ(-c3ccc(O)cc3)c(=O)c2c1O [6-carboxymethyl genistein]	–	–	–	–	–	–	–	–	caused an increase in CK activity in rat tissues	–	EC50 ([1]; Homo sapiens, NCI-H295R, [3H]-thymidine incorporation, read-out: induced proliferation, EC50 in NCI-H295R): 0.002 µM; EC50 ([6]; Homo sapiens, VSMC, [3H]-thymidine incorporation, read-out: induced proliferation, EC50 in VSMC): 0.003 µM; IC50 (Recombinant ERβ protein; recombinant ERβ, [3H]-17β-estradiol 3 nM, read-out: inhibition of binding of [3H]-estradiol to ERβ, relative binding affinity values (IC50)): 0.2 µM
O=C(O)COc1ccc2c(=O)c(-c3ccc(O)cc3)coc2c1 [7-(O)-carboxymethyl daidzein]	–	did not show any significant binding activity	–	–	–	–	–	–	–	did not show any significant binding activity	–
COc1ccc(-c2coc3cc(O)cc(O)c3c2=O)cc1 [Biochanin A, biochanin A]	–	did not show any significant binding activity	2 ± 0.18	1.9 ± 0.23	2.38 ± 0.18	1.42 ± 0.04	1.58 ± 0.05	1.42 ± 0.13	stimulated the CK specific activity in all the rat tissues	did not show any significant binding activity	–
O=c1c(-c2ccc(O)cc2)coc2cc(O)ccc12 [Daidzein, reference compound]	–	did not show any significant binding activity	–	–	–	–	–	–	–	did not show any significant binding activity	–
COc1cccc2c1C(=O)c1c(O)c3c(c(O)c1C2=O)C[C@@](O)(C(C)=O)C[C@@H]3O[C@H]1C[C@H](N)[C@H](O)[C@H](C)O1 [Daunomycin, daunomycin, reference compound]	0.3	–	–	–	–	–	–	–	–	–	IC50 ([2]; Homo sapiens, COLO 320, read-out: concentration required for 50% inhibition of DNA synthesis (IC50), Colo320): 0.3 µM; IC50 ([3]; read-out: concentration required for 50% inhibition of DNA synthesis (IC50), E304, 48 h incubation): 0.8 µM; IC50 ([4]; Rattus norvegicus): 0.85 µM; IC50 ([5]; Rattus norvegicus): 0.55 µM; IC50 ([6]; Homo sapiens, VSMC, read-out: concentration required for 50% inhibition of DNA synthesis (IC50), VSMC, 48 h incubation, [3H]-thymidine): 0.7 µM; IC50 ([6]; read-out: concentration required for 50% inhibition of DNA synthesis (IC50), VSMC, 48 h incubation, [3H]-thymidine): 0.65 µM
C[C@]12CC[C@@H]3c4ccc(O)cc4CC[C@H]3[C@@H]1CC[C@@H]2O [Estradiol, 17β-estradiol]	–	–	2.43 ± 0.06	2.75 ± 0.23	1.85 ± 0.16	1.53 ± 0.13	1.45 ± 0.05	1.49 ± 0.13	stimulated the CK specific activity in all the rat tissues	–	–
